# Results reported in article PMC12527922, “Cocaine chemogenetics blunts drug-seeking by synthetic physiology” (Nature, 2025).
# Like-named read-outs stand apart in the source and are kept apart here.
# Experiments:
# Experiment in all cases: cell-based
# Type in all cases: cell-based, human α7 nAChR LBD, mouse 5HT3 IPD
# [1] = target: α7–5HT3 mutant chimeric channels (Homo sapiens, UniProt P36544, Q139K)
# [2] = target: α7–5HT3 mutant chimeric channels (Homo sapiens, UniProt P36544, Q139F)
# [3] = target: α7–5HT3 mutant chimeric channels (Homo sapiens, UniProt P36544, S170H)
# [4] = target: α7–5HT3 mutant chimeric channels (Homo sapiens, UniProt P36544, S172L)
# [5] = target: α7–5HT3 mutant chimeric channels (Homo sapiens, UniProt P36544, Q139V)
# [6] = target: α7–5HT3 mutant chimeric channels (Homo sapiens, UniProt P36544, S170N)
# [7] = target: α7–5HT3 mutant chimeric channels (Homo sapiens, UniProt P36544, L131G)
# [8] = target: α7–5HT3 mutant chimeric channels (Homo sapiens, UniProt P36544, Q139P)
# [9] = target: α7–5HT3 mutant chimeric channels (Homo sapiens, UniProt P36544, S170L)
# [10] = target: α7–5HT3 mutant chimeric channels (Homo sapiens, UniProt P36544, S172V)
# [11] = target: α7–5HT3 mutant chimeric channels (Homo sapiens, UniProt P36544, L141P)
# [12] = target: α7–5HT3 mutant chimeric channels (Homo sapiens, UniProt P36544, L141A)
# [13] = target: α7–5HT3 mutant chimeric channels (Homo sapiens, UniProt P36544, S172K)
# [14] = target: α7–5HT3 mutant chimeric channels (Homo sapiens, UniProt P36544, Q139L)
# [15] = target: α7–5HT3 mutant chimeric channels (Homo sapiens, UniProt P36544, W77Y)
# [16] = target: α7–5HT3 mutant chimeric channels (Homo sapiens, UniProt P36544, S170Y)
# [17] = target: α7–5HT3 mutant chimeric channels (Homo sapiens, UniProt P36544, Q139Y)
# [18] = target: α7–5HT3 mutant chimeric channels (Homo sapiens, UniProt P36544, L141F)
# [19] = target: α7–5HT3 mutant chimeric channels (Homo sapiens, UniProt P36544, W77F)
# [20] = target: α7–5HT3 mutant chimeric channels (Homo sapiens, UniProt P36544, Q79A)
# [21] = target: α7–5HT3 mutant chimeric channels (Homo sapiens, UniProt P36544, S170T)
# [22] = target: α7–5HT3 mutant chimeric channels (Homo sapiens, UniProt P36544, Q139D)
# [23] = target: α7–5HT3 mutant chimeric channels (Homo sapiens, UniProt P36544, L141S)
# [24] = target: α7–5HT3 mutant chimeric channels (Homo sapiens, UniProt P36544, S170E)
# [25] = target: α7–5HT3 mutant chimeric channels (Homo sapiens, UniProt P36544, Q139A)
# [26] = target: α7–5HT3 mutant chimeric channels (Homo sapiens, UniProt P36544, W77L)
# Chain of α7–5HT3 mutant chimeric channels (Homo sapiens, UniProt P36544, Q139D) (P23979 242-489): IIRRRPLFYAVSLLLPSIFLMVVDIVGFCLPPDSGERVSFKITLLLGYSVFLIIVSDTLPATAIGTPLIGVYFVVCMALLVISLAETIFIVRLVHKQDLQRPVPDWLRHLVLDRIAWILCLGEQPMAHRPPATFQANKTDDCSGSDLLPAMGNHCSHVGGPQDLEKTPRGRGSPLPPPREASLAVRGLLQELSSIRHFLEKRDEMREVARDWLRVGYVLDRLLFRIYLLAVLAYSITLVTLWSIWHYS
# Chain of α7–5HT3 mutant chimeric channels (Homo sapiens, UniProt P36544, Q139D) (P36544 23-224 Q139D): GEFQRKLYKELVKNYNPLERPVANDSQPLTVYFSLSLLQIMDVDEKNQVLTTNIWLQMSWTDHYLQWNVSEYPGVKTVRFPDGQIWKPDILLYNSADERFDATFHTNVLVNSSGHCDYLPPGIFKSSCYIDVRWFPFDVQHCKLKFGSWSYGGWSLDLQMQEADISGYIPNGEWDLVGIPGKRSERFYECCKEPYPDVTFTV
# Chain of α7–5HT3 mutant chimeric channels (Homo sapiens, UniProt P36544, Q139V) (P23979 242-489): as the sequence (P23979 242-489) above
# Chain of α7–5HT3 mutant chimeric channels (Homo sapiens, UniProt P36544, Q139V) (P36544 23-224 Q139V): as the sequence (P36544 23-224 Q139D) above, with D117V counted along it
# Chain of α7–5HT3 mutant chimeric channels (Homo sapiens, UniProt P36544, Q79A) (P23979 242-489): as the sequence (P23979 242-489) above
# Chain of α7–5HT3 mutant chimeric channels (Homo sapiens, UniProt P36544, Q79A) (P36544 23-224 Q79A): as the sequence (P36544 23-224 Q139D) above, with Q57A, D117Q counted along it
# Chain of α7–5HT3 mutant chimeric channels (Homo sapiens, UniProt P36544, Q139K) (P23979 242-489): as the sequence (P23979 242-489) above
# Chain of α7–5HT3 mutant chimeric channels (Homo sapiens, UniProt P36544, Q139K) (P36544 23-224 Q139K): as the sequence (P36544 23-224 Q139D) above, with D117K counted along it
# Chain of α7–5HT3 mutant chimeric channels (Homo sapiens, UniProt P36544, W77F) (P23979 242-489): as the sequence (P23979 242-489) above
# Chain of α7–5HT3 mutant chimeric channels (Homo sapiens, UniProt P36544, W77F) (P36544 23-224 W77F): as the sequence (P36544 23-224 Q139D) above, with W55F, D117Q counted along it
# Chain of α7–5HT3 mutant chimeric channels (Homo sapiens, UniProt P36544, Q139A) (P23979 242-489): as the sequence (P23979 242-489) above
# Chain of α7–5HT3 mutant chimeric channels (Homo sapiens, UniProt P36544, Q139A) (P36544 23-224 Q139A): as the sequence (P36544 23-224 Q139D) above, with D117A counted along it
# Chain of α7–5HT3 mutant chimeric channels (Homo sapiens, UniProt P36544, Q139P) (P23979 242-489): as the sequence (P23979 242-489) above
# Chain of α7–5HT3 mutant chimeric channels (Homo sapiens, UniProt P36544, Q139P) (P36544 23-224 Q139P): as the sequence (P36544 23-224 Q139D) above, with D117P counted along it
# Chain of α7–5HT3 mutant chimeric channels (Homo sapiens, UniProt P36544, L141S) (P36544 23-224 L141S): as the sequence (P36544 23-224 Q139D) above, with D117Q, L119S counted along it
# Chain of α7–5HT3 mutant chimeric channels (Homo sapiens, UniProt P36544, L141S) (P23979 242-489, further chain): as the sequence (P23979 242-489) above
# Chain of α7–5HT3 mutant chimeric channels (Homo sapiens, UniProt P36544, L131G) (P36544 23-224 L131G): as the sequence (P36544 23-224 Q139D) above, with L109G, D117Q counted along it
# Chain of α7–5HT3 mutant chimeric channels (Homo sapiens, UniProt P36544, L131G) (P23979 242-489, further chain): as the sequence (P23979 242-489) above
# Chain of α7–5HT3 mutant chimeric channels (Homo sapiens, UniProt P36544, L141F) (P36544 23-224 L141F): as the sequence (P36544 23-224 Q139D) above, with D117Q, L119F counted along it
# Chain of α7–5HT3 mutant chimeric channels (Homo sapiens, UniProt P36544, L141F) (P23979 242-489, further chain): as the sequence (P23979 242-489) above
structure (smiles),measurement,setting,value
COC(=O)[C@H]1[C@@H](OC(=O)c2ccccc2)C[C@@H]2CC[C@H]1N2C [cocaine],EC50,[1],> 30 µM
same,EC50,"[1]; read-out: EC50 at a7 5HT3 Q139K, Avg, sheet 1d, Avg",> 30 µM
same,EC50,[2],> 30 µM
same,EC50,"[2]; read-out: EC50 at a7 5HT3 Q139F, Avg, sheet 1d, Avg",> 30 µM
same,EC50,[3],> 30 µM
same,EC50,[4],> 30 µM
same,EC50,[5],> 30 µM
same,EC50,"[5]; read-out: EC50 at a7 5HT3 Q139V, Avg, sheet 1d, Avg",> 30 µM
same,EC50,[6],> 30 µM
same,EC50,[7],> 30 µM
same,EC50,"[7]; read-out: EC50 at α75HT3 L131G, sheet 1d, single determinations",> 30 µM
same,EC50,[8],> 30 µM
same,EC50,"[8]; read-out: EC50 at a7 5HT3 Q139P, Avg, sheet 1d, Avg",> 30 µM
same,EC50,[9],6 µM
same,EC50,[10],> 30 µM
same,EC50,[11],> 30 µM
same,EC50,"[11]; read-out: EC50 at α75HT3 L141P, Avg, sheet 1d, Avg",> 30 µM
same,EC50,[12],3.5 µM
same,EC50,[13],> 30 µM
same,EC50,[14],> 30 µM
same,EC50,"[14]; read-out: EC50 at a7 5HT3 Q139L, sheet 1d, single determinations",> 30 µM
same,EC50,[15],> 30 µM
same,EC50,"[15]; read-out: EC50 at a7 5HT3 W77Y, Avg, sheet 1d, Avg",> 30 µM
same,EC50,[16],> 30 µM
same,EC50,[17],> 30 µM
same,EC50,"[17]; read-out: EC50 at a7 5HT3 Q139Y, Avg, sheet 1d, Avg",> 30 µM
same,EC50,[18],> 30 µM
same,EC50,"[18]; read-out: EC50 at α75HT3 L141F, sheet 1d, single determinations",> 30 µM
same,EC50,[19],> 30 µM
same,EC50,"[19]; read-out: EC50 at a7 5HT3 W77F, sheet 1d, single determinations",> 30 µM
same,EC50,[20],> 30 µM
same,EC50,"[20]; read-out: EC50 at a7 5HT3 Q79A, sheet 1d, single determinations",> 30 µM
same,EC50,[21],> 30 µM
same,EC50,[22],> 30 µM
same,EC50,"[22]; read-out: EC50 at a7 5HT3 Q139D, Avg, sheet 1d, Avg",> 30 µM
same,EC50,[23],> 30 µM
same,EC50,"[23]; read-out: EC50 at α75HT3 L141S, sheet 1d, single determinations",> 30 µM
same,EC50,[24],> 30 µM
same,EC50,[25],> 30 µM
same,EC50,"[25]; read-out: EC50 at a7 5HT3 Q139A, Avg, sheet 1d, Avg",> 30 µM
same,EC50,[26],> 30 µM
same,EC50,"[26]; read-out: EC50 at a7 5HT3 W77L, Avg, sheet 1d, Avg",> 30 µM
